Measured values reported in the supplement of paper PMC10307832.

Key:
Assay in all cases: relative viability (nuclei count vs DMSO), 5 days (fraction); higher = more cells survive
[1] = compound: Cc1nc(Nc2ncc(C(=O)Nc3c(C)cccc3Cl)s2)cc(N2CCN(CCO)CC2)n1 [Dasatinib] + Nc1nc2[nH]cc(CCc3ccc(C(=O)N[C@@H](CCC(=O)O)C(=O)O)cc3)c2c(=O)[nH]1 [Pemetrexed] (partner 0.2 µM)
Procedure, shortened: (§1)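 Five library-drug doses in √10 steps were combined with a fixed anchor-drug dose, or a single drug was given alone, by pin tool to lung cancer cell lines in 1536-well plates the day after seeding. Nuclei were stained and counted after 5 days. Relative viability is the nuclei count in treated wells over that in vehicle wells, taken as the median of duplicate plates.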

[2] = compound: Cc1nc(Nc2ncc(C(=O)Nc3c(C)cccc3Cl)s2)cc(N2CCN(CCO)CC2)n1 [Dasatinib] + CC(=O)Nc1cccc(-n2c(=O)n(C3CC3)c(=O)c3c(Nc4ccc(I)cc4F)n(C)c(=O)c(C)c32)c1 [Trametinib] (partner 0.02 µM)
Procedure, shortened: as §1

[3] = compound: C1CC1C(=O)NC2=NNC3=C2C=CC(=C3)C4=CC(=CC=C4)C(=O)NC5CC5 [XMD13-2] + Cc1nc(Nc2ncc(C(=O)Nc3c(C)cccc3Cl)s2)cc(N2CCN(CCO)CC2)n1 [Dasatinib] (partner 0.075 µM)
Procedure, shortened: as §1

[4] = compound: C1CC1C(=O)NC2=NNC3=C2C=CC(=C3)C4=CC(=CC=C4)C(=O)NC5CC5 [XMD13-2] + CC(C)C[C@H](NC(=O)[C@H](Cc1ccccc1)NC(=O)c1cnccn1)B(O)O [Bortezomib] (partner 0.002 µM)
Procedure, shortened: as §1

| Cell Line | relative viability ([1]; first compound 0.005 µM) | relative viability ([1]; first compound 0.01581 µM) | relative viability ([1]; first compound 0.05 µM) | relative viability ([1]; first compound 0.1581 µM) | relative viability ([1]; first compound 0.5 µM) | relative viability ([2]; first compound 0.005 µM) | relative viability ([2]; first compound 0.01581 µM) | relative viability ([2]; first compound 0.05 µM) | relative viability ([2]; first compound 0.1581 µM) | relative viability ([2]; first compound 0.5 µM) | relative viability ([3]; first compound 0.05 µM) | relative viability ([3]; first compound 0.1581 µM) | relative viability ([3]; first compound 0.5 µM) | relative viability ([3]; first compound 1.581 µM) | relative viability ([3]; first compound 5 µM) | relative viability ([4]; first compound 0.05 µM) | relative viability ([4]; first compound 0.1581 µM) | relative viability ([4]; first compound 0.5 µM) | relative viability ([4]; first compound 1.581 µM) | relative viability ([4]; first compound 5 µM) |
| --- | --- | --- | --- | --- | --- | --- | --- | --- | --- | --- | --- | --- | --- | --- | --- | --- | --- | --- | --- | --- |
| NCI-H460 | 0.0609 | 0.062 | 0.0522 | 0.0587 | 0.0433 | 0.0853 | 0.0968 | 0.0795 | 0.0504 | 0.0455 | 0.636 | 0.466 | 0.525 | 0.578 | 0.626 | 1.38 | 1.09 | 1.15 | 1.18 | 1.34 |
| NCI-H838 | 0.26 | 0.241 | 0.218 | 0.176 | 0.214 | 0.486 | 0.435 | 0.365 | 0.227 | 0.142 | 0.276 | 0.293 | 0.274 | 0.241 | 0.318 | 1.15 | 0.886 | 1.03 | 0.81 | 0.986 |
| NCI-H1792 | 0.709 | 0.672 | 0.605 | 0.267 | 0.067 | 0.343 | 0.272 | 0.324 | 0.218 | 0.0771 | 0.966 | 1.03 | 0.798 | 0.971 | 0.829 | 1.16 | 0.996 | 1 | 0.927 | 1.15 |
| H3255 | 0.578 | 0.535 | 0.52 | 0.49 | 0.375 | 0.667 | 0.489 | 0.587 | 0.431 | 0.297 | 0.425 | 0.402 | 0.367 | 0.294 | 0.373 | 1 | 0.75 | 0.817 | 0.575 | 0.764 |
| EPLC-272H | 0.385 | 0.356 | 0.286 | 0.154 | 0.198 | 0.312 | 0.267 | 0.307 | 0.222 | 0.141 | 0.39 | 0.31 | 0.503 | 0.317 | 0.269 | 0.747 | 0.886 | 0.855 | 0.856 | 0.871 |
| NCI-H647 | 0.156 | 0.137 | 0.117 | 0.0903 | 0.0883 | 0.372 | 0.224 | 0.244 | 0.145 | 0.116 | 0.17 | 0.172 | 0.207 | 0.13 | 0.115 | 1.59 | 1.16 | 1.29 | 1.11 | 0.549 |
| LXF-289 | 0.918 | 0.987 | 1.13 | 0.687 | 0.205 | 0.678 | 0.746 | 0.821 | 0.555 | 0.219 | 0.301 | 0.239 | 0.242 | 0.141 | 0.205 | 1.06 | 1.04 | 1.07 | 0.976 | 1 |
| NCI-H1650 | 0.341 | 0.38 | 0.287 | 0.285 | 0.268 | 0.667 | 0.493 | 0.406 | 0.313 | 0.216 | 0.268 | 0.367 | 0.318 | 0.282 | 0.296 | 0.22 | 0.201 | 0.198 | 0.195 | 0.191 |
